Patent US9517228B2, “Cannabinoid receptor antagonists/inverse agonists useful for treating metabolic disorders, including obesity and diabetes” (Jenrin Discovery, priority 2012, dated 2016)

Target: CB1R (Mus musculus (Mouse), UniProt P47746)
Test: CB1R competition displacement binding with [3H]CP-55,940
Conditions: [3H]CP-55,940 radioligand, crude membranes from mouse brain, triplicates; read-out: CB1 IC50
Method: Compound binding to CB1R was assessed in competition displacement assays using [3H]CP-55,940 as the radioligand and crude membranes from mouse brain. See Tam, J., Vemuri, V. K., Liu, J., Batkai, S., Mukhopadhyay, B., Godlewski, G., Osei-Hyiaman, D., Ohnuma, S., Ambudkar, S. V., Pickel, J., et al., J. Clin. Invest. 2010, 120, 2953-2966. All data were in triplicates with Ki values determined from three independent experiments.

CB1R, sequence (P47746 whole entry): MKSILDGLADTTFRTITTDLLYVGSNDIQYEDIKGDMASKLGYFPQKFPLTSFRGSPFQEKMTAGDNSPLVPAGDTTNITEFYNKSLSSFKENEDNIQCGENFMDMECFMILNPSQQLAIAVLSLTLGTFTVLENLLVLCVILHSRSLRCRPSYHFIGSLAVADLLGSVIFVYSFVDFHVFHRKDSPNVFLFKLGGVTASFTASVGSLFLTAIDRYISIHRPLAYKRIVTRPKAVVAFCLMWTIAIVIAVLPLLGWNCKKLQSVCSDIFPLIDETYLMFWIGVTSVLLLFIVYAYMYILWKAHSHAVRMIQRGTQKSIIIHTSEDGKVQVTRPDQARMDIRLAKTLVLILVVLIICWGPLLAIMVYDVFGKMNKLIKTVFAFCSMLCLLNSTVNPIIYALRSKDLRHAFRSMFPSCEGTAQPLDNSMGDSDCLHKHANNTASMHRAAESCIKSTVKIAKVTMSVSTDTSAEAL

IC50 [nM]	SMILES
< 100	NC(=O)CN/C(=N\S(=O)(=O)c1ccc(Cl)cc1)N1C[C@H](c2ccccc2)C(c2ccc(Cl)cc2)=N1 [Example 1]
> 1000	NC(=O)CN/C(=N\S(=O)(=O)c1ccc(Cl)cc1)N1C[C@@H](c2ccccc2)C(c2ccc(Cl)cc2)=N1 [Example 1a]
< 100	C[C@@H](O)[C@H](N/C(=N\S(=O)(=O)c1ccc(Cl)cc1)N1C[C@H](c2ccccc2)C(c2ccc(Cl)cc2)=N1)C(N)=O [Example 2, (2S,3R)-2-((S)-3-(4-chlorophenyl)-N′-((4-chlorophenyl)sulfonyl)-4-phenyl-4,5-dihydro-1H-pyrazole-1-carboximidamido)-3-hydroxybutanamide]
> 1000	C[C@@H](O)[C@H](N/C(=N\S(=O)(=O)c1ccc(Cl)cc1)N1C[C@@H](c2ccccc2)C(c2ccc(Cl)cc2)=N1)C(N)=O [Example 2a, (2S,3R)-2-((R)-3-(4-chlorophenyl)-N′-((4-chlorophenyl)sulfonyl)-4-phenyl-4,5-dihydro-1H-pyrazole-1-carboximidamido)-3-hydroxybutanamide]
< 100	NC(=O)[C@H](CO)N/C(=N\S(=O)(=O)c1ccc(Cl)cc1)N1C[C@H](c2ccccc2)C(c2ccc(Cl)cc2)=N1 [Example 3]
500 to 1000	NC(=O)[C@H](CO)N/C(=N\S(=O)(=O)c1ccc(Cl)cc1)N1C[C@@H](c2ccccc2)C(c2ccc(Cl)cc2)=N1 [Example 3a]
< 100	CC(C)[C@H](N/C(=N\S(=O)(=O)c1ccc(Cl)cc1)N1C[C@H](c2ccccc2)C(c2ccc(Cl)cc2)=N1)C(N)=O [Example 4]
> 1000	CC(C)[C@H](N/C(=N\S(=O)(=O)c1ccc(Cl)cc1)N1C[C@@H](c2ccccc2)C(c2ccc(Cl)cc2)=N1)C(N)=O [Example 4a]

System: not given
Test: not given
Conditions: type 2 diabetes patients not on other anti-diabetic medications, six months of treatment, baseline value 7.9; cited from earlier work

SMILES	HbA1c levels lowered [%]
Cc1c(C(=O)NN2CCCCC2)nn(-c2ccc(Cl)cc2Cl)c1-c1ccc(Cl)cc1 [rimonabant]	0.8
